Data on three molecules can be found in US6669946B2, “METHOD FOR IDENTIFYING INDIVIDUALS SUFFERING FROM A CELLULAR ABNORMALITY SOME OF WHOSE ABNORMAL CELLS PRESENT COMPLEXES OF HUMAN LEUKOCYTE ANTIGEN TYROSINASE DERIVED PEPTIDES, AND METHODS FOR TREATING SAID INDIVIDUALS” (Ludwig Institute for Cancer Research, priority 1992, dated 2003).

Common to all, as to format: cell-based, human
One series has as its system CTL clone CTL 210/9. Put plainly: Parallel peptide recognition experiment with CTL 210/9. As to the method: (§1) Using the methodologies described in examples 1-5, various fragments of the CDNA were cotransfected with a gene for HLA-A2 in COS-7 cells, and TNF release assays were performed. […] The 400 base fragment used corresponded to bases 711 to 1152 of SEQ ID NO: 1. The amino acid sequence for which the fragment codes was deduced, and this sequence was then compared to the information provided by Hunt et al., Science 255: 1261 (1992), and Falk et al., Nature 351: 290 (1991), the disclosures of which are both incorporated by reference in their entirety. These references discuss consensus sequences for HLA-A2 presented peptides. Specifically, Hunt discusses nonapeptides, where either Leu or Ile is always found at the second position, Leu being the “dominant residue”. The ninth residue is described as always being a residue with an aliphatic hydrocarbon side chain. Val is the dominant residue at this position. […]
The tyrosinase loss variants, cytolytic T cell clones, and peptides were incubated for one hour in a solution containing ^51Cr, at 37° C., either with or without anti HLA-A2 antibody MA2.1, which was used to stabilize empty HLA-A2 molecules. […] After 30 minutes, effector cells were added at an E/T ratio of 40/1 and four hours later, 10λ of supernatant were collected and radioactivity counted. […]

The subject of series [1] is cytolytic T cell clone CTL IVSB. Put plainly: 51Cr release assay on peptide-sensitized HLA-A2 presenting cells with CTL IVSB. To be noted: SK29-MEL 1.218 and T202LB; peptide 100 μM down to 0.01 μM; E/T ratio 40/1; four hours. How it is done:
as §1
(§2) The tyrosinase loss variants, cytolytic T cell clones, and peptides were incubated for one hour in a solution containing ^51Cr, at 37° C., either with or without anti HLA-A2 antibody MA2.1, which was used to stabilize empty HLA-A2 molecules. […] After 30 minutes, effector cells were added at an E/T ratio of 40/1 and four hours later, 10λ of supernatant were collected and radioactivity counted.

Series [2] has as its system cytolytic T cell clone CTL 2/9. Put plainly: 51Cr release assay on peptide-sensitized HLA-A2 presenting cells with CTL 2/9. To be noted: SK29-MEL 1.218 and T202LB; peptide 100 μM down to 0.01 μM; E/T ratio 40/1; four hours. As to the method:
as §1, §2

For a further series, the system named is CTL 210/9. Put plainly: TNF release by CTL 210/9 on COS-7 cells cotransfected with HLA-A2 and cDNA pool or fragment. To be noted: COS-7 cotransfected with cDNA fragment and HLA-A2. How it is done: (§3) The amplified plasmids were then transfected into eukaryotic cells. Samples of COS-7 cells were seeded, at 15,000 cells/well into tissue culture flat bottom microwells, in Dulbeco's modified Eagles Medium (“DMEM”) supplemented with 10% fetal calf serum. The cells were incubated overnight at 37° C., medium was removed and then replaced by 30 μl/well of DMEM medium containing 10% Nu serum, 400 μg/ml DEAE-dextran, 100 μM chloroquine, 100 ng of plasmid pcDNA-I/Amp-A2 and 100 ng of DNA of a pool of the cDNA library described supra. Plasmid pcDNA-I/Amp-A2 contains the HLA-A2 gene from SK29-MEL. Following four hours of incubation at 37° C, the medium was removed, and replaced by 50 μl of PBS containing 10% DMSO. This medium was removed after two minutes and replaced by 200 μl of DMEM supplemented with 10% of FCS.
(§4) Following this change in medium, COS cells were incubated for 48 hours at 37° C. Medium was then discarded, and 2000 cells of either of the described CTL clones were added, in 100 μl of Iscove medium containing 10% pooled human serum. When clone 210/9 was used, the medium was supplemented with 25 U/ml of IL-2. Supernatant was removed after 24 hours, and TNF content was determined in an assay on WEHI cells, as described by Traversari et al., Immunogenetics 35: 145-152 (1992), the disclosure of which is incorporated by reference. […]

In the next series the test system is CTL IVSB. Put plainly: TNF release by CTL IVSB on COS-7 cells cotransfected with HLA-A2 and cDNA pool or fragment. To be noted: COS-7 cotransfected with cDNA fragment and HLA-A2 gene. As to the method:
as §3, §4

“Also recorded” adds a separate entry of the source.

For “Tyr Met Asn Gly Thr Met Ser Gln Val (YMNGTMSQV) [SEQ ID NO: 2, tyrosinase derived nonapeptide presented by HLA-A2]”, in the series on CTL clone CTL 210/9, the “recognition of complexes of HLA-A2 and peptide by CTL 210/9” value is listed as “not recognized; also recorded: did not recognize”. Further, in series [1], the “recognition of complexes of HLA-A2 and peptide by CTL IVSB” value is listed as “recognition; also recorded: recognized”. Also, the “recognition of peptide by CTL 2/9” value in series [2] was “not”.

B1: second gene fragment: fragment from base 1 to base 1092 of SEQ ID NO: 1, not encoding SEQ ID NO: 2 (nucleic acid)
DNA: GACCTTGTGAGGACTAGAGGAAGAATGCTCCTGGCTGTTTTGTACTGCCTGCTGTGGAGTTTCCAGACCTCCGCTGGCCATTTCCCTAGAGCCTGTGTCTCCTCTAAGAACCTGATGGAGAAGGAATGCTGTCCACCGTGGAGCGGGGACAGGAGTCCCTGTGGCCAGCTTTCAGGCAGAGGTTCCTGTCAGAATATCCTTCTGTCCAATGCACCACTTGGGCCTCAATTTCCCTTCACAGGGGTGGATGACCGGGAGTCGTGGCCTTCCGTCTTTTATAATAGGACCTGCCAGTGCTCTGGCAACTTCATGGGATTCAACTGTGGAAACTGCAAGTTTGGCTTTTGGGGACCAAACTGCACAGAGAGACGACTCTTGGTGAGAAGAAACATCTTCGATTTGAGTGCCCCAGAGAAGGACAAATTTTTTGCCTACCTCACTTTAGCAAAGCATACCATCAGCTCAGACTATGTCATCCCCATAGGGACCTATGGCCAAATGAAAAATGGATCAACACCCATGTTTAACGACATCAATATTTATGACCTCTTTGTCTGGATGCATTATTATGTGTCAATGGATGCACTGCTTGGGGGATCTGAAATCTGGAGAGACATTGATTTTGCCCATGAAGCACCAGCTTTTCTGCCTTGGCATAGACTCTTCTTGTTGCGGTGGGAACAAGAAATCCAGAAGCTGACAGGAGATGAAAACTTCACTATTCCATATTGGGACTGGCGGGATGCAGAAAAGTGTGACATTTGCACAGATGAGTACATGGGAGGTCAGCACCCCACAAATCCTAACTTACTCAGCCCAGCATCATTCTTCTCCTCTTGGCAGATTGTCTGTAGCCGATTGGAGGAGTACAACAGCCATCAGTCTTTATGCAATGGAACGCCCGAGGGACCTTTACGGCGTAATCCTGGAAACCATGACAAATCCAGAACCCCAAGGCTCCCCTCTTCAGCTGATGTAGAATTTTGCCTGAGTTTGACCCAATATGAATCTGGTTCCATGGATAAAGCTGCCAATTTCAGCTTTAGAAATACACTGGAAGGATTTGCTAGTCCACTTACTGGGATAGCGGAT
For B1, in the series with CTL 210/9, the “recognition by CTL 210/9 of antigen on transfected cells” value was “recognized”. The “TNF release from / recognition by CTL IVSB” value in the series on CTL IVSB is listed as “did not”.

B2: 400 base pair fragment: fragment corresponding to bases 711 to 1152 of SEQ ID NO: 1 (nucleic acid)
DNA: AAACTTCACTATTCCATATTGGGACTGGCGGGATGCAGAAAAGTGTGACATTTGCACAGATGAGTACATGGGAGGTCAGCACCCCACAAATCCTAACTTACTCAGCCCAGCATCATTCTTCTCCTCTTGGCAGATTGTCTGTAGCCGATTGGAGGAGTACAACAGCCATCAGTCTTTATGCAATGGAACGCCCGAGGGACCTTTACGGCGTAATCCTGGAAACCATGACAAATCCAGAACCCCAAGGCTCCCCTCTTCAGCTGATGTAGAATTTTGCCTGAGTTTGACCCAATATGAATCTGGTTCCATGGATAAAGCTGCCAATTTCAGCTTTAGAAATACACTGGAAGGATTTGCTAGTCCACTTACTGGGATAGCGGATGCCTCTCAAAGCAGCATGCACAATGCCTTGCACATCTATATGAATGGAACAATGTCCCAG
Take B2: the “TNF release from / recognition by CTL IVSB” value with CTL IVSB is given as “provoked TNF release”.
